Assay results from publication PMC10179505, “Rivastigmine–Benzimidazole Hybrids as Promising Multitarget Metal-Modulating Compounds for Potential Treatment of Neurodegenerative Diseases” (International Journal of Molecular Sciences, 2023).

Key:
[1] = test system: SH-SY5Y cells; type: cell-based, human
Description: SH-SY5Y human neuroblastoma cells were kept in culture under a humidified atmosphere of 5% CO2 at 37 °C in Dulbecco’s Modified Eagle Medium/Nutrient Mixture F-12 (DMEM/F-12) (Gibco, Thermo Fisher Scientific) supplemented with 10% heat-inactivated fetal bovine serum (FBS), 50 U/mL penicillin, and 50 μg/mL streptomycin. Cells were plated at a density of 1 × 10^5 cells/mL and pre-incubated for 1 h with the compounds by adding them to the medium at the following final concentrations: 1 µM for compounds 4a, 4b, and 5b; 2 µM for compounds 4c and 5a; and 3 µM for compound 4d. Then the cells were incubated for 24 h with MPP^+ (1-methyl-4-phenylpyridinium, Sigma-Aldrich) (1 h pre-incubation + 24 h incubation) at the final concentration of 0.5 mM. MPP^+ was freshly prepared in sterile water on the day of the experiment. The compounds were dissolved in DMSO, aliquoted, and stored at −20 °C; their toxicity was previously studied through cell viability assays to select the highest non-toxic concentration of each compound.
Cell viability was measured by the colorimetric MTT (3-(4,5-dimethylthiazol-2-yl)-2,5-diphenyltetrazolium bromide) reduction assay, which follows the principle that viable cells can metabolize MTT into formazan that absorbs light at 570 nm. After the cell treatments with the compounds and MPP^+, the culture medium was removed, 150 µL of MTT (0.5 mg/mL dissolved in sodium medium) was added to each well, and the 48-well plate was incubated at 37 °C for 2 h. The formazan precipitates were then solubilized with 150 µL of 0.04 M HCl/isopropanol. The absorbance was read at 570 nm using a spectrophotometer (Spectramax Plus 384), and cell viability results were normalized to untreated SH-SY5Y cells, with the means ± SEMs derived from six different experiments performed in duplicate (N = 6). Statistical analyses were performed on GraphPad Prism 8 (GraphPad Software, San Diego, CA, USA) using one-way analysis of variance (ANOVA) followed by Tukey’s post hoc test or using Student’s t-test to determine statistical significance.

[2] = target: T1, hMAO-B (Homo sapiens, UniProt P27338); test: hMAO-B inhibition (kynuramine to 4-hydroxyquinoline, microsomal recombinant enzyme); type: biochemical
T1 construct: purchased Sigma-Aldrich Quimica S.A., Madrid, Spain; host or cells: insect cells (BTI-TN-5B1-4) infected with recombinant baculovirus
T1 sequence (P27338 1-520): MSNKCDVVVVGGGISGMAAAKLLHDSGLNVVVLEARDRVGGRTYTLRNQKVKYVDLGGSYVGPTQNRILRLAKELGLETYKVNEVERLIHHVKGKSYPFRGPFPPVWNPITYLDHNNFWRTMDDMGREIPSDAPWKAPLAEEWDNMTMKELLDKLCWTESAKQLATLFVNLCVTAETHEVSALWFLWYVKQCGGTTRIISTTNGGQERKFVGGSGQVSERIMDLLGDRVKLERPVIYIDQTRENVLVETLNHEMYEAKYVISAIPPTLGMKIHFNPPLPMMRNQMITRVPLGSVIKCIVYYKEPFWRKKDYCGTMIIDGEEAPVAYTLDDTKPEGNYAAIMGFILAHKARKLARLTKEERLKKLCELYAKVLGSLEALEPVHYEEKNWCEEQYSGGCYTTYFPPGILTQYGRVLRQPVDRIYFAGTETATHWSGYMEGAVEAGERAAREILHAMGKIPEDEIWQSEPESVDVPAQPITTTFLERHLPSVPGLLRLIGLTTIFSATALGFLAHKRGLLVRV
Description: (§1) The inhibitory activity of the rivastigmine hybrids (RIV–BIM) on hMAO-A and hMAO-B was studied using an experimental protocol described elsewhere with some modifications. The outlined hMAO inhibition was assessed in microsomal MAO isoforms prepared from insect cells (BTI-TN-5B1-4) infected with recombinant baculovirus containing cDNA inserts for hMAO-A or hMAO-B (Sigma-Aldrich Quimica S.A., Madrid, Spain) and by measuring the enzymatic conversion rates of kynuramine into 4-hydroxyquinoline. […] All assays were performed under sodium phosphate-buffered conditions (50 mM, pH = 7.4). […] Then, the reaction was started with the addition of hMAO-A or hMAO-B. Initial velocities were determined spectrophotometrically in a microplate reader (Biotek Synergy HT, Winooski, VT, USA) at 37 °C by measuring the formation of 4-hydroxyquinoline at 316 nm, over a period of at least 30 min (interval of 1 min). Data were analyzed using GraphPad PRISM version 6 for Windows (GraphPad Software®, San Diego, CA, USA). The initial velocities, obtained from the linear phase of product formation, were normalized and plotted against the respective inhibitor concentration. IC50 values were obtained from dose–response curves and were expressed as the mean ± standard deviation. IC50 values were determined from at least three independent experiments, each performed in triplicate.

[3] = test system: Aβ42; settings: absence of copper, 20 µM inhibitor, thioflavin-T fluorescence; cited from earlier work
[4] = target: T2, hMAO-A (Homo sapiens, UniProt P21397); test: hMAO-A inhibition (kynuramine to 4-hydroxyquinoline, microsomal recombinant enzyme); type: biochemical; settings: for hMAO isoform selectivity: hMAO-A vs hMAO-B; for inhibition at 10 µM: read-out: % Inhibition (at 10 µM) hMAO-A
T2 construct: purchased Sigma-Aldrich Quimica S.A., Madrid, Spain; host or cells: insect cells (BTI-TN-5B1-4) infected with recombinant baculovirus
T2 sequence (P21397 1-527): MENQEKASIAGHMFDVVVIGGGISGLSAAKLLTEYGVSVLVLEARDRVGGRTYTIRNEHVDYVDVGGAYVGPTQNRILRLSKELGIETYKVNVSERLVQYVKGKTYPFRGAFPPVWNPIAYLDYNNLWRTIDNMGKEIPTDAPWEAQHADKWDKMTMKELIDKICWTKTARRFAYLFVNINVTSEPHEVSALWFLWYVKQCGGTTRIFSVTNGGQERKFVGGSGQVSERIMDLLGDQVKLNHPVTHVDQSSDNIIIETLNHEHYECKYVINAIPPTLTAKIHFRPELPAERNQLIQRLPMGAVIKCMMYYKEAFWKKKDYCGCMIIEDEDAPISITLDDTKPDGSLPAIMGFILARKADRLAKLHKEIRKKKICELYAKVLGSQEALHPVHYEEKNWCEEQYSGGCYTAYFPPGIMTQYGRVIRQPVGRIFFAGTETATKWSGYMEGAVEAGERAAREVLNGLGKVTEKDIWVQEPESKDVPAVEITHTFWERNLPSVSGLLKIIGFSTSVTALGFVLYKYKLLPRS
Description: as §1

[5] = test system: Aβ42; settings: presence of copper (40 µM), 20 µM inhibitor, thioflavin-T fluorescence; cited from earlier work
[6] = Cu(II) complexation by spectrophotometric titration; type: physicochemical
Description: (§2) The metal complexation studies were performed by spectrophotometric titration, in the same 50% w/w DMSO/water medium used for both ligands alone, with fitting analysis of the UV-Vis spectra by Psequad. The calculated metal-chelating equilibrium models, included in Table 1, show good chelating capacity towards Cu(II) (pCu~10.3–13.6) and Fe(III) (pFe~16.8–17.4), involving complex species with a 1:1 to 1:2 or 1:1 to 1:3 M/L ratio, respectively. Metal coordination is expected to occur primarily through the phenolic oxygen and the imidazole nitrogen N(3) of the BIM moiety.
(§3) The two positional isomeric hybrids 4c and 5a were titrated, alone or in the presence of the metal ions, in a 50% w/w DMSO/H2O medium, at T = 25.0 ± 0.1 °C and ionic strength of (I) 0.1 M KCl, by using a 0.1 M KOH (50% w/w DMSO/H2O) titrant solution. The glass and Ag/AgCl reference electrodes were previously conditioned in different DMSO/H2O mixtures of increasing DMSO % compositions, and the response of the glass electrode was evaluated by strong acid–strong base (HCl/KOH) calibrations with the determination of the Nernst parameters by Gran’s method. […] The spectrophotometric measurements were carried out in a 250–450 nm (L, Cu/L systems) or 250–650 nm (L, Fe/L systems) wavelength range at pH ca 2.5–8.0. Under these specified experimental conditions, the pKw value (14.95) was determined and subsequently used in the calculations. The stepwise protonation constants of the ligands, Ki = [HiL]/[Hi−1L][H], and the overall metal–complex stability constants, βMmHhLl = [MmHhLl]/[M]^m[H]^h[L]^l, were calculated by fitting the spectrophotometric data with the Psequad program. The metal hydrolysis model was determined under the established experimental conditions (I = 0.1 M KCl, 50% w/w DMSO/H2O, T = 25.0 ± 0.1 °C) and the following values of stability constants were included in the equilibrium models related to the Fe(III)/L and Cu(II)/L systems: log βFeH−1 = −4.07, log βFeH−3 = −11.42; log βCu2H−2 = −9.99. The species distribution curves were obtained with the Hyss program.

[7] = Protonation constants by spectrophotometric titration (Psequad fitting); type: physicochemical; settings: pH 7.4, CL = 1 × 10^−5 M
Description: To formulate the model for the metal chelation mechanism of compounds 4c and 5a, their protonation constants were first determined by spectrophotometric titrations in a 50% (w/w) DMSO/H2O medium by fitting the experimental data with the program Psequad. This working medium was adopted to perform all the equilibrium studies due to certain solubility problems of the compounds. Since the concentration of the compound used in cell studies is low (<7 μM), the final corresponding concentration of DMSO in culture media would be much lower (<1%) and also is not expected to induce modifications of biological tissues.
The two positional isomeric hybrids 4c and 5a were titrated, alone or in the presence of the metal ions, in a 50% w/w DMSO/H2O medium, at T = 25.0 ± 0.1 °C and ionic strength of (I) 0.1 M KCl, by using a 0.1 M KOH (50% w/w DMSO/H2O) titrant solution. The glass and Ag/AgCl reference electrodes were previously conditioned in different DMSO/H2O mixtures of increasing DMSO % compositions, and the response of the glass electrode was evaluated by strong acid–strong base (HCl/KOH) calibrations with the determination of the Nernst parameters by Gran’s method. […] Under these specified experimental conditions, the pKw value (14.95) was determined and subsequently used in the calculations. […]

[8] = Fe(III) complexation by spectrophotometric titration; type: physicochemical
Description: as §2, §3

[9] = pM = −log[M] at pH 7.4, CL/CM = 10, CM = 10^−6 M

| Structure (SMILES) | inhibition at 10 µM [2] [%] | Aβ42 Self- Aggreg. Inhib. [3] [%] | IC50 [4] [µM] | hMAO isoform selectivity [4] | Aβ42 Cu-ind. Aggreg. Inhib. [5] [%] | inhibition at 10 µM [4] [%] | further results |
| --- | --- | --- | --- | --- | --- | --- | --- |
| C[n+]1ccc(-c2ccccc2)cc1 [MPP^+, 1-methyl-4-phenylpyridinium, reference compound] |  |  |  |  |  |  | decrease in cell viability compared with untreated cells ([1]; MPP+ 0.5 mM, 24 h, MTT): approximately 30% |
| CCN(C)C(=O)Oc1ccc(CCCNC(=O)c2ccc3[nH]c(-c4ccccc4O)nc3c2)cc1 [4d] | 43 | 20.1 | 11 ± 1 | selective for isoform A | 21.3 |  |  |
| CCN(C)C(=O)Oc1cccc(CNC(=O)c2ccc3[nH]c(-c4ccccc4O)nc3c2)c1 [4b] | 43 | 39.6 | 8.6 ± 0.9 | selective for isoform A | 48.8 |  |  |
| CCN(C)C(=O)Oc1cccc(CNC(=O)c2cccc3[nH]c(-c4ccccc4O)nc23)c1 [5b] | 34 | 58.7 |  |  | 60.8 | 22 | protection on MPP+-induced toxicity (cell viability, MTT) ([1]; 1 µM compound, 1 h pre-incubation, then 0.5 mM MPP+ for 24 h): significant protection |
| CCN(C)C(=O)Oc1cccc(CCNC(=O)c2ccc3[nH]c(-c4ccccc4O)nc3c2)c1 [4c] | 33 | 21.2 |  |  | 22.0 | 30 | logβCumHhLl, global formation constant, species (1–11) ([6]; CuH−1L (1–11), T = 25.0 ± 0.1 °C, I = 0.1 M KCl, 50% w/w DMSO/water): 3.40(5); logβCumHhLl, global formation constant, species (102) ([6]; CuL2 (102), T = 25.0 ± 0.1 °C, I = 0.1 M KCl, 50% w/w DMSO/water): 17.16(8); logβCumHhLl, global formation constant, species (101) ([6]; CuL (101), T = 25.0 ± 0.1 °C, I = 0.1 M KCl, 50% w/w DMSO/water): 9.09(5); Kd ([6]; calculated at pH 7.4, read-out: conditional dissociation constant (K’d) for the copper complex): 0.032 µM; pM (pCu) [6, 9]: 10.3; predominant neutral species HL [7]: 97.4%; log βFemHhLl, global formation constant, species (102) ([8]; FeL2 (102), T = 25.0 ± 0.1 °C, I = 0.1 M KCl, 50% w/w DMSO/water): 20.35(7); log βFemHhLl, global formation constant, species (103) ([8]; FeL3 (103), T = 25.0 ± 0.1 °C, I = 0.1 M KCl, 50% w/w DMSO/water): 28.40(6); log βFemHhLl, global formation constant, species (101) ([8]; FeL (101), T = 25.0 ± 0.1 °C, I = 0.1 M KCl, 50% w/w DMSO/water): 11.57(6); pM (pFe) [8, 9]: 16.8 |
